How the values were obtained:
hPPAR α (LBD) = target: T1, hPPAR α (LBD) (Homo sapiens, UniProt Q07869); test: GAL4-hPPAR α (LBD) luciferase reporter transactivation in CV-1 cells; format: cell-based; design: key: IA: inactive; details: relative to 100% of compound of Example 2 of Patent Publication 4 at 10^−6 M
T1 construct: A receptor expression plasmid (pSG5-GAL4-hPPAR α or γ or δ (LBD)); GAL4 (fusion partner); expressed in transfected cells; host or cells: CV-1 cells (ATCC)
T1 sequence (Q07869 239-466 limits assumed): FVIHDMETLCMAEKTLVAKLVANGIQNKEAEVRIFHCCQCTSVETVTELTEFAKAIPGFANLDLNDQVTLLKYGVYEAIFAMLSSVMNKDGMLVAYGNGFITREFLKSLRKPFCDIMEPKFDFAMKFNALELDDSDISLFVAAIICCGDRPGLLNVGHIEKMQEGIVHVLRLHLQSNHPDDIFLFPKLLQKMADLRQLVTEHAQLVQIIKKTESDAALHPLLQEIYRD
Method: (§1) A receptor expression plasmid (pSG5-GAL4-hPPAR α or γ or δ (LBD)), a luciferase expression plasmid (pUC8-MH100x4-TK-Luc) and β-galactosidase expression plasmid (pCMX-β-GAL) (Kliewer, S. A., et. al., (1992) Nature, 358:771-774) are transfected into CV-1 cells (ATCC). After gene transfer utilizing a lipofection reagent DMRIE-C or Lipofectamin 2000 (Invitrogen), it is incubated for 42 hours in the presence of the test compound. Then, the luciferase activity and β-GAL activity are measured on the soluble cells. The luciferase activity is calibrated by the β-GAL activity. A relative ligand activity is calculated for each of the PPARα, γ and δ under the following conditions: a relative activity of PPAR α is calculated in consideration of a luciferase activity (assigned to 100%) of cells treated with the compound described in Example 2 of the aforementioned Patent Publication 4 (PPARα-selective agonist); a relative activity of PPAR γ is calculated in consideration of a luciferase activity (assigned to 100%) cells treated with Rosiglitazone; and a relative activity of PPAR δ is calculated in consideration of a luciferase activity (assigned to 100%) of cells treated with GW-501516. See the below-described Examples 22 and 23.
(§2) The PPARδ activating effects of test compounds (compounds of Examples) were measured by the following method:
as §1, with “(pUC8-MH100x-4-TK-Luc)” for “(pUC8-MH100x4-TK-Luc)”, “approx. 40” for “42”, “PPAR α,” for “PPARα,”, “GW-501516.” for “GW-501516. See the below-described Examples 22 and 23.”
(§3) The experimental results Table 28 were obtained by procedures similar to the procedures for pharmacological experimental described in Example 22.

hPPAR γ (LBD) = target: T2, hPPAR γ (LBD) (Homo sapiens, UniProt P37231); test: GAL4-hPPAR γ (LBD) luciferase reporter transactivation in CV-1 cells; format: cell-based; design: key: IA: inactive; details: relative to 100% of Rosiglitazone at 10^−5 M
T2 construct: A receptor expression plasmid (pSG5-GAL4-hPPAR α or γ or δ (LBD)); GAL4 (fusion partner); expressed in transfected cells; host or cells: CV-1 cells (ATCC)
T2 sequence (P37231 238-503 limits assumed): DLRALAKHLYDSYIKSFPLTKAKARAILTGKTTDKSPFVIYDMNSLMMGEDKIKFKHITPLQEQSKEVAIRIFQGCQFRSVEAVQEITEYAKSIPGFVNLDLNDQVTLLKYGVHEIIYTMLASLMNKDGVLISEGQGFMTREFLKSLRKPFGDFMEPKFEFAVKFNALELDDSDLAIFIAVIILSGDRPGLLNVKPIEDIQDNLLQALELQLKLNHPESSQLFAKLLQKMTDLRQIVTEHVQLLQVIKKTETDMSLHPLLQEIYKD
Method: as §1, §2
as §1, with “(pUC8-MH100x-4-TK-Luc)” for “(pUC8-MH100x4-TK-Luc)”, “approx. 40” for “42”, “PPAR α,” for “PPARα,”, “GW-501516.” for “GW-501516. See the below-described Examples 22 and 23.”
as §3

hPPAR δ (LBD) = target: T3, hPPAR δ (LBD) (Homo sapiens, UniProt Q03181); test: GAL4-hPPAR δ (LBD) luciferase reporter transactivation in CV-1 cells; format: cell-based; details: relative to 100% of GW-501516 at 10^−7 M
T3 construct: A receptor expression plasmid (pSG5-GAL4-hPPAR α or γ or δ (LBD)); GAL4 (fusion partner); expressed in transfected cells; host or cells: CV-1 cells (ATCC)
T3 sequence (Q03181 211-439 limits assumed): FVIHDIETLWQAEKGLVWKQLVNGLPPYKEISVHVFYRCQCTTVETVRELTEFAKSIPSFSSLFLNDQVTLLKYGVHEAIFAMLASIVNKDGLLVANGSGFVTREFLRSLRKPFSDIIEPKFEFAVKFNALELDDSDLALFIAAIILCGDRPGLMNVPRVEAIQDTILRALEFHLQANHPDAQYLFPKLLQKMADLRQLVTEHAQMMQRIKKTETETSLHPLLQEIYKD
Method: For determining PPARδ activating effect of the compounds according to the invention, PPARδ activating effects of test compounds (compounds of Examples) were measured by the following method:
as §1, §2
as §1, with “(pUC8-MH100x-4-TK-Luc)” for “(pUC8-MH100x4-TK-Luc)”, “approx. 40” for “42”, “PPAR α,” for “PPARα,”, “GW-501516.” for “GW-501516. See the below-described Examples 22 and 23.”
as §3

[1] = Table 28, test compound 10^−6 M

Row | Compound | PPAR activity (%) α (hPPAR α (LBD); test compound 10^−6 M) | PPAR activity (%) γ (hPPAR γ (LBD); test compound 10^−6 M) | PPAR activity (%) δ (hPPAR δ (LBD); test compound 10^−6 M) [%] | melting point [°C] | PPAR activity (%) α (hPPAR α (LBD); [1]) | PPAR activity (%) γ (hPPAR γ (LBD); [1]) | PPAR activity (%) δ (hPPAR δ (LBD); [1]) [%]
1 | CCCCCCn1nc(-c2ccc(C(F)(F)F)cc2)cc1CCC(=O)c1ccc(OCC(=O)O)c(C)c1 [Example 11, [4-[3-[1-Hexyl-3-(4-trifluoromethylphenyl)-1H-pyrazol-5-yl]propionyl]-2-methylphenoxy]acetic acid] | IA | IA | 81 | 118 to 123 | – | – | –
2 | Cc1cc(C(=O)CCc2sc(-c3ccc(C(F)(F)F)cc3)cc2C(C)C)ccc1OCC(=O)O [Example 16, [4-[3-[3-Isopropyl-5-(4-trifluoromethylphenyl)thiophen-2-yl]propionyl]-2-methylphenoxy]acetic acid] | – | – | – | 139 to 143 | inactive | inactive | 92
